Experimental data: patent US4443619A, “Chlorocitric acids” (Hoffmann-La Roche Inc., priority 1981, dated 1984)

Assays:
[1] = Anorectic effect in 8 hour meal-fed Zucker rats (Example 17); format: in vivo, lean (Fa/-) and obese (fa/fa)
Experimental: Lean (Fa/-) Zucker rats and obese (fa/fa) Zucker rats of both sexes were individually housed in wire-bottomed cages in a temperature-regulated (22° C.) light-controlled room (12 hr light, 6 a.m. to 6 p.m. and 12 hr dark, 6 p.m. 6 a.m.). The animals were fed a high carbohydrate (70% glucose) diet ad libitum for 13 days, dosed with the indicated compounds by oral intubation for 9 days and allowed to recover for 3 days. The animals were then meal fed from 8 a.m. to 4 p.m. for a period of 5 days, following which they were continued on the same meal schedule for an additional 6 days. During the 6-day period, the animals were administered the indicated compounds by oral intubation at 8 a.m. and 12 p.m. Food cups were weighed immediately after the meal.

[2] = tested on: Stomach Emptying; assay: Effect on stomach emptying ([14C]glucose load) in rats (Example 25); format: in vivo; conditions: 0.33 mmoles/kg oral, 60 min after [14C]glucose load, mean ± S.E.
Experimental: Rats were trained to consume a 3 hr 70% glucose meal from 8 a.m. to 11 a.m. daily. On the experimental day, compounds were administered orally by intubation 30 min before a [^14 C]glucose load was given also by intubation. […] Sixty minutes later the rats were killed by decapitation; blood and stomachs were collected on ice.
Data are expressed as follows: dpm×10^3 per ml of serum and dpm×10^3 per stomach.

[3] = Anorectic activities of stereoisomers: 3-day food consumption and body weight gain in meal-fed rats; format: in vivo, Charles River female rats; conditions: 1.32 mmoles/kg oral, 3 days, mean ± S.E.
Experimental: Charles River female rats (Charles River Breeding Laboratories, Wilmington, Mass.), weighing 196 to 210 g, were individually housed in wire-bottomed cages in a temperature-regulated (22° C.) light-controlled room (12 hr light, 6 a.m. to 6 p.m. and 12 hr dark, 6 p.m. to 6 a.m.). Animals were fasted 48 hr, then meal-fed a 70% glucose diet from 8 to 11 a.m. Following 5 to 12 days alimentation on the meal-feeding regimen, rats were dosed with the appropriate compounds orally by intubation 1/2 hr before the 3 hr meal for 3 days. The total food consumption and body weight gained during the 3 day period were determined. The control group consisted of 16 rats, while the experimental group consists of 8 rats.

[4] = Food consumption of three diets in meal-fed rats (Example 15); format: in vivo, Charles River female rats; conditions: mean ± S.E.
Experimental: Charles River female rats (Charles River Breeding Laboratories, Wilmington, Mass.), weighing 170 to 200 g, were individually housed in wire-bottomed cages in a temperature-regulated (22° C.) light-controlled room (12 hr light, 6 a.m. to 6 p.m. and 12 hr dark, 6 p.m. to 6 a.m.). Animals were fasted 48 hr, then meal-fed the indicated diets from 8 to 11 a.m. Following 5 to 12 days alimentation on the meal-feeding regimen, rats were dosed with the appropriate compounds orally by intubation 1/2 hr before the 3 hr meal. Food cups were weighed immediately after the 1st, 2nd and 3rd hr of the meal. The control groups consisted of 8 to 10 rats and the experimental group considered of 5 to 6 rats.

[5] = Effect of stereoisomers of chlorocitric acid on food consumption in meal-fed rats (Example 14); format: in vivo, Charles River female rats; conditions: mean ± S.E.
Experimental: Animals were fasted 48 hr, then meal-fed the 70% glucose diet described by A. C. […] Following 5 to 12 days alimentation on the meal-feeding regimen, rats were dosed with the appropriate compounds orally by intubation 1/2 hr before the 3 hr meal. Food cups were weighed immediately after the meal. The control group consisted of 5 to 10 rats, while the experimental group consisted of 4 to 6 rats.

[6] = Body weight gain in 8 hour meal-fed Zucker rats (Example 18); format: in vivo, lean (Fa/-) and obese (fa/fa); conditions: 6 days, mean ± S.E.
Experimental: Lean (Fa/-) Zucker rats and obese (fa/fa) Zucker rats of both sexes were individually housed in wire-bottomed cages in a temperature-regulated (22° C.) light-controlled room (12 hr light, 6 a.m. to 6 p.m. and 12 hr dark, 6 p.m. to 6 a.m.). The animals were fed a high carbohydrate (70% glucose) diet ad libitum for 13 days, dosed with the indicated compounds by oral intubation for 9 days and allowed to recover for 3 days. The animals were then meal fed from 8 a.m. to 4 p.m. for a period of 5 days, following which they were continued on the same meal schedule for an additional 6 days. During the 6-day period, the animals were administered the indicated compounds by oral intubation at 8 a.m. and 12 p.m. Body weight gain during the 6-day period was determined.

[7] = Food intake in dogs, pyramiding oral doses (Examples 26 and 27); format: in vivo, beagle dogs
Experimental: Twelve beagle dogs of both sexes weighing 7.6-12.2 kg were used for this test. The test compounds were contained in gelatin capsules for oral administration to two dogs of each sex. The animals were weighed and food consumption calculated daily excluding weekends throughout the test period. Each animal received 800 grams of diet daily consisting of 400 grams of Wayne pellet dog food mixed with 400 ml distilled water. The animals received pyramiding oral doses of the test compound over the three week period. On Monday and Tuesday of the first week the animals were weighed and food consumption was recorded (control). The animals received 3 mg/kg on Wednesday and 10 mg/kg on Friday of the first week. Doses of 30, 100 and 300 mg/kg were administered on Monday, Wednesday and Friday respectively during the second week. A final dose of 1000 mg/kg was administered on Monday of the third week.
Food intake was determined by the procedure by pyramiding doses described in Example 26.

[8] = Anorectic activity, body weight and carcass analysis in mammals (summary statements); format: in vivo; conditions: acute meal-fed assay utilizing three diets and pyramiding dose studies; compared with hydroxycitric acid
[9] = 20% Corn Oil, 0.33 mmoles (75 mg)/kg oral
[10] = 20% Corn Oil, 0.66 mmoles (150 mg)/kg oral
[11] = 70% Glucose, 0.33 mmoles (75 mg)/kg oral
[12] = 70% Glucose, 0.66 mmoles (150 mg)/kg oral
[13] = Chow, 0.33 mmoles (75 mg)/kg oral
[14] = Chow, 0.66 mmoles (150 mg)/kg oral
[15] = 2.63 mmoles/kg oral, control 13.5 ± 0.8
[16] = test day 20, no dose, (±) one animal, (+) and (-) two animals

Structure (SMILES): O=C(O)C[C@](O)(C(=O)O)[C@H](Cl)C(=O)O [(+)-threo-Chlorocitric acid, (+)-threo-chlorocitric acid]
- Daily Food Consumption ([1]; Fa/- lean, 0.66 mmoles/kg oral, treatment day 1): 10.1 ± 0.8 g
- Daily Food Consumption ([1]; Fa/- lean, 0.66 mmoles/kg oral, treatment day 2): 8.7 ± 0.3 g
- Daily Food Consumption ([1]; Fa/- lean, 0.66 mmoles/kg oral, treatment day 3): 11.7 ± 0.7 g
- Daily Food Consumption ([1]; Fa/- lean, 0.66 mmoles/kg oral, treatment day 4): 9.8 ± 0.9 g
- Daily Food Consumption ([1]; Fa/- lean, 0.66 mmoles/kg oral, treatment day 5): 12.8 ± 0.9 g
- Daily Food Consumption ([1]; Fa/- lean, 0.66 mmoles/kg oral, treatment day 6): 11.4 ± 0.7 g
- Daily Food Consumption ([1]; Fa/- lean, 0.66 mmoles/kg, day 0 (pretreatment)): 10.6 ± 0.8 g
- Daily Food Consumption ([1]; fa/fa obese, 0.66 mmoles/kg oral, treatment day 1): 10.3 ± 0.4 g
- Daily Food Consumption ([1]; fa/fa obese, 0.66 mmoles/kg oral, treatment day 2): 8.8 ± 0.8 g
- Daily Food Consumption ([1]; fa/fa obese, 0.66 mmoles/kg oral, treatment day 3): 11.3 ± 1.0 g
- Daily Food Consumption ([1]; fa/fa obese, 0.66 mmoles/kg oral, treatment day 4): 11.6 ± 1.2 g
- Daily Food Consumption ([1]; fa/fa obese, 0.66 mmoles/kg oral, treatment day 5): 12.3 ± 1.5 g
- Daily Food Consumption ([1]; fa/fa obese, 0.66 mmoles/kg oral, treatment day 6): 14.2 ± 1.8 g
- Daily Food Consumption ([1]; fa/fa obese, 0.66 mmoles/kg, day 0 (pretreatment)): 14.3 ± 1.4 g
- Serum, total per ml [2]: 3.4 ± 0.6 dpm × 10^3
- Stomach Contents, total per stomach [2]: 1946 ± 361 dpm × 10^3
- 3-Day Body Weight Gain [3]: -3.5 ± 1.2 g
- 3-Day Food Consumption [3]: 26.5 ± 1.3 g
- Food intake, 1st hr [4, 9]: 7.1 ± 1.2 g
- Food intake, 2nd hr [4, 9]: 3.9 ± 0.5 g
- Food intake, 3rd hr [4, 9]: 3.2 ± 0.6 g
- Food intake, Total [4, 9]: 14.2 ± 1.2 g
- Food intake, 1st hr [4, 10]: 6.7 ± 1.6 g
- Food intake, 2nd hr [4, 10]: 3.1 ± 0.6 g
- Food intake, 3rd hr [4, 10]: 2.2 ± 0.7 g
- Food intake, Total [4, 10]: 12.3 ± 1.6 g
- Food intake, 1st hr [4, 11]: 6.2 ± 1.8 g
- Food intake, 2nd hr [4, 11]: 2.4 ± 0.8 g
- Food intake, 3rd hr [4, 11]: 2.4 ± 0.5 g
- Food intake, Total [4, 11]: 11.0 ± 2.3 g
- Food intake, 1st hr [4, 12]: 3.2 ± 0.5 g
- Food intake, 2nd hr [4, 12]: 5.1 ± 1.3 g
- Food intake, 3rd hr [4, 12]: 1.7 ± 0.3 g
- Food intake, Total [4, 12]: 10.1 ± 1.7 g
- Food intake, 1st hr [4, 13]: 7.4 ± 0.6 g
- Food intake, 2nd hr [4, 13]: 2.6 ± 0.7 g
- Food intake, 3rd hr [4, 13]: 2.2 ± 0.5 g
- Food intake, Total [4, 13]: 12.2 ± 0.4 g
- Food intake, 1st hr [4, 14]: 7.7 ± 0.5 g
- Food intake, 2nd hr [4, 14]: 3.9 ± 0.5 g
- Food intake, 3rd hr [4, 14]: 1.8 ± 0.9 g
- Food intake, Total [4, 14]: 13.4 ± 0.9 g
- Food consumption ([5]; 0.66 mmoles/kg oral, control 8.2 ± 1.2): 6.8 ± 1.0 g
- Food consumption [5, 15]: 5.1 ± 1.2 g
- Body Weight Gain ([6]; Fa/- lean, 0.66 mmoles/kg b.i.d. oral): 2.5 ± 2.3 g
- Body Weight Gain ([6]; fa/fa obese, 0.66 mmoles/kg b.i.d. oral): -3.6 ± 2.0 g
- Food Consumption, % of control [7, 16]: 96 % of control
- Food consumption [7, 16]: 583 ± 17 g
- Food consumption ([7]; test days -2, -1, before dosing (control period)): 610 ± 43 g

Structure (SMILES): O=C(O)CC(O)(CC(=O)O)C(=O)O [Citric Acid]
- Daily Food Consumption ([1]; Fa/- lean, 1.32 mmoles/kg oral, treatment day 1): 10.6 ± 1.2 g
- Daily Food Consumption ([1]; Fa/- lean, 1.32 mmoles/kg oral, treatment day 2): 10.0 ± 1.2 g
- Daily Food Consumption ([1]; Fa/- lean, 1.32 mmoles/kg oral, treatment day 3): 12.7 ± 1.0 g
- Daily Food Consumption ([1]; Fa/- lean, 1.32 mmoles/kg oral, treatment day 4): 11.9 ± 0.7 g
- Daily Food Consumption ([1]; Fa/- lean, 1.32 mmoles/kg oral, treatment day 5): 12.6 ± 0.8 g
- Daily Food Consumption ([1]; Fa/- lean, 1.32 mmoles/kg oral, treatment day 6): 13.1 ± 0.9 g
- Daily Food Consumption ([1]; Fa/- lean, 1.32 mmoles/kg, day 0 (pretreatment)): 11.0 ± 0.8 g
- Daily Food Consumption ([1]; fa/fa obese, 1.32 mmoles/kg oral, treatment day 1): 11.4 ± 0.8 g
- Daily Food Consumption ([1]; fa/fa obese, 1.32 mmoles/kg oral, treatment day 2): 13.8 ± 1.2 g
- Daily Food Consumption ([1]; fa/fa obese, 1.32 mmoles/kg oral, treatment day 3): 16.5 ± 1.0 g
- Daily Food Consumption ([1]; fa/fa obese, 1.32 mmoles/kg oral, treatment day 4): 14.8 ± 0.9 g
- Daily Food Consumption ([1]; fa/fa obese, 1.32 mmoles/kg oral, treatment day 5): 15.7 g
- Daily Food Consumption ([1]; fa/fa obese, 1.32 mmoles/kg oral, treatment day 6): 16.0 ± 1.0 g
- Daily Food Consumption ([1]; fa/fa obese, 1.32 mmoles/kg, day 0 (pretreatment)): 13.4 ± 0.8 g
- Food consumption [5, 15]: 12.7 ± 1.7 g
- Body Weight Gain ([6]; Fa/- lean, 1.32 mmoles/kg b.i.d. oral): 2.8 ± 3.7 g
- Body Weight Gain ([6]; fa/fa obese, 1.32 mmoles/kg b.i.d. oral): 3.4 ± 1.6 g
- anorectic activity as measured by reduction in food consumption [8]: inactive
